From ChEMBL document CHEMBL1156236, “Trypanoside, anti-tuberculosis, leishmanicidal, and cytotoxic activities of tetrahydrobenzothienopyrimidines” (Bioorg Med Chem, 2010)

Legend:
HCT-116 = experiment: Cytotoxicity against human HCT116 cells; assay type: functional
SK-MEL-28 = experiment: Cytotoxicity against human SK-MEL-28 cells; assay type: functional
SF-295 = experiment: Cytotoxicity against human SF295 cells; assay type: functional
SNB-19 = experiment: Cytotoxicity against human SNB19 cells; assay type: functional
UO-31 = experiment: Cytotoxicity against human UO31 cells; assay type: functional; conditions: read-out: LC50 (the source's name)
SK-OV-3 = experiment: Cytotoxicity against human SKOV3 cells; assay type: functional
M14 = experiment: Cytotoxicity against human M14 cells; assay type: functional
[1] = Selectivity index, ratio of IC50 for african green monkey Vero cells to MIC for Mycobacterium tuberculosis H37Rv ATCC 27294 by microplate alamar blue assay; assay type: functional
PC-3 = experiment: Cytotoxicity against human PC3 cells; assay type: functional
UACC-62 = experiment: Cytotoxicity against human UACC62 cells; assay type: functional
NCI-H522 = experiment: Cytotoxicity against human NCI-H522 cells; assay type: functional
TK-10 = experiment: Cytotoxicity against human TK10 cells; assay type: functional
NCI-H23 = experiment: Cytotoxicity against human NCI-H23 cells; assay type: functional
[2] = Cytotoxicity against human […] cells; assay type: functional
T47D = experiment: Cytotoxicity against human T47D cells; assay type: functional
Vero = experiment: Cytotoxicity against african green monkey Vero cells after 72 hrs by MTS assay; conditions: Chlorocebus sabaeus, Vero, 72 h
[3] = Selectivity index, ratio of IC50 for BALB/c mouse macrophages to IC50 for Leishmania amazonensis MHOM/BR/76/LTB-012
NCI/ADR-RES = experiment: Cytotoxicity against human NCI/ADR-RES cells; assay type: functional
NCI-H460 = experiment: Cytotoxicity against human NCI-H460 cells; assay type: functional
U-251 = experiment: Cytotoxicity against human U251 cells; assay type: functional
SW-620 = experiment: Cytotoxicity against human SW620 cells; assay type: functional
EKVX = experiment: Cytotoxicity against human EKVX cells; assay type: functional
CAKI-1 = experiment: Cytotoxicity against human Caki1 cells; assay type: functional
SF-268 = experiment: Cytotoxicity against human SF268 cells; assay type: functional
HCC 2998 = experiment: Cytotoxicity against human HCC2998 cells; assay type: functional
BT-549 = experiment: Cytotoxicity against human BT549 cells; assay type: functional
MCF7 = experiment: Cytotoxicity against human MCF7 cells; assay type: functional
[4] = read-out: LC50 (the source's name)

## C(=N\Nc1ncnc2sc3c(c12)CCCC3)/c1ccccn1
HCT-116
  GI50: 0.166 µM
  TGI: 14.2 µM
HCT-116; [4]
  CC50: 67.4 µM
SK-MEL-28
  GI50: 0.422 µM
  TGI: 16.7 µM
SK-MEL-28; [4]
  CC50: 54.6 µM
SF-295
  GI50: 0.313 µM
  TGI: 12.1 µM
SF-295; [4]
  CC50: > 100 µM
SNB-19
  GI50: 0.767 µM
  TGI: 34.1 µM
SNB-19; [4]
  CC50: > 100 µM
UO-31
  CC50: 63 µM
SK-OV-3
  GI50: 0.41 µM
  TGI: 29.2 µM
SK-OV-3; [4]
  CC50: > 0.1 µM
M14
  GI50: 0.25 µM
  TGI: 0.599 µM
M14; [4]
  CC50: 33.4 µM
[1]
  Ratio IC50: 0.2
PC-3
  GI50: 0.431 µM
  TGI: 71.1 µM
PC-3; [4]
  CC50: > 100 µM
UACC-62
  GI50: 0.379 µM
  TGI: 6.54 µM
UACC-62; [4]
  CC50: 48.4 µM
NCI-H522
  GI50: 0.419 µM
  TGI: 23.2 µM
NCI-H522; [4]
  CC50: > 100 µM
TK-10
  GI50: 0.486 µM
  TGI: 56.6 µM
TK-10; [4]
  CC50: > 100 µM
NCI-H23
  GI50: 0.705 µM
  TGI: 34.3 µM
NCI-H23; [4]
  CC50: > 100 µM
[2]
  GI50: 0.35 µM
  TGI: 12.5 µM
[2]; [4]
  CC50: > 100 µM
T47D
  GI50: 0.0764 µM
  TGI: 28 µM
T47D; [4]
  CC50: > 100 µM
Vero
  IC50: < 0.3 µM
[3]
  Ratio IC50: 13
NCI/ADR-RES
  GI50: 0.427 µM
  TGI: 58.1 µM
NCI/ADR-RES; [4]
  CC50: > 0.1 µM
NCI-H460
  GI50: 0.4 µM
  TGI: 1.73 µM
NCI-H460; [4]
  CC50: 31.1 µM
U-251
  GI50: 0.369 µM
  TGI: 12.1 µM
U-251; [4]
  CC50: 34.8 µM
SW-620
  GI50: 0.561 µM
  TGI: 17.9 µM
SW-620; [4]
  CC50: 59.5 µM
EKVX
  GI50: 0.317 µM
  TGI: 20.5 µM
EKVX; [4]
  CC50: > 100 µM
CAKI-1
  GI50: 0.313 µM
  TGI: 14.8 µM
CAKI-1; [4]
  CC50: > 100 µM
SF-268
  GI50: 0.356 µM
  TGI: 15.1 µM
SF-268; [4]
  CC50: 83 µM
HCC 2998
  GI50: 10 µM
  TGI: 22.9 µM
HCC 2998; [4]
  CC50: 52.6 µM
BT-549
  GI50: 0.394 µM
  TGI: 28.7 µM
BT-549; [4]
  CC50: > 100 µM
MCF7
  GI50: 0.09 µM
  TGI: 15.3 µM
MCF7; [4]
  CC50: 80 µM
